As a reminder, the IC50 is the concentration that gives 50% inhibition. Broadly, the inhibition is the relative decrease from the control value, in per cent.

The text below walks through data of PMC11314063, “Inhibition of DNA Topoisomerase Ι by Flavonoids and Polyacetylenes Isolated from Bidens pilosa L” (Molecules, 2024).

The structures appear in SMILES notation. Where two headings read alike, the source gives them in different places. Where only a bound is given, the exact number is not on record here.

A short description of data set [1]: SRB cytotoxicity assay, panel of five human cancer cell lines and one human hepatocyte cell line. The note with it: human. The method, then: (§1) The cytotoxicities of 1–29 were tested by an SRB assay on a panel of five human cancer cell lines and one human hepatocyte cell line.
(§2) The cytotoxic activities of the compounds against cancer cells were examined with a sulforhodamine B (SRB) colorimetric assay. Cells were seeded at a density of 5 × 10^3/well in 96-well plates for 24 h; various concentrations of the tested compounds, dissolved in DMSO and diluted with the complete medium, were added in the wells in triplicate and incubated for 48 h. After that, the cell viability was assessed with the SRB assay as we described before. The IC50 values were determined using the Reed and Muench method and are expressed as the mean ± SD of at least three independent measurements.
Background: Sulforhodamine B stains cellular protein and so reports cell mass.

Another data set concerns A549. The data set can be described thus: SRB cytotoxicity assay, A549. The class given is cell-based. The note with it: Homo sapiens, read-out: IC50 Cytotoxicity A549. From the text:
(§3) The cell lines MDA-MB-231 (No. TCHu227), A549 (No. TCHu150), and HepG2 (No. TCHu72) were obtained from the Cell Bank/Stem Cell Bank, Chinese Academy of Sciences (Shanghai, China). The cell lines DLD-1 (No. CC0507) and HCT116 (No. CC0506) were obtained from the Cell Bank of Cellcook Biotech Co., Ltd. (Guangzhou, China). Cell line HL-7702 (No. BNCC338358) was obtained from Bena Culture Collection (Zhengzhou, China).
(§4) The human cancer cell lines MDA-MB-231 (breast adenocarcinoma), DLD-1 (colorectal adenocarcinoma), A549 (lung epithelial carcinoma), HCT116 (colorectal adenocarcinoma), HepG2 (hepatocellular carcinoma), and human hepatocyte HL-7702 were cultured in Dulbecco’s modified eagle medium (DMEM, Biological Industries, Beit Haemek, Israel) containing 10% (v/v) fetal bovine serum (FBS, Biological Industries, Beit Haemek, Israel) at 37 °C in a humidified incubator (ThermoFisher, Carlsbad, CA, USA) with a 5% CO2 atmosphere.

Another data set deals with HCT116. The data set can be described thus: SRB cytotoxicity assay, HCT116. To be noted: Homo sapiens, read-out: IC50 Cytotoxicity HCT116. The class given is cell-based.
Text: as §3, §4

In the next data set the target is T1, DNA Topo I (Homo sapiens, UniProt P11387).
T1 construct: purchased ThermoFisher, Waltham, MA, USA
T1 sequence (P11387 1-765): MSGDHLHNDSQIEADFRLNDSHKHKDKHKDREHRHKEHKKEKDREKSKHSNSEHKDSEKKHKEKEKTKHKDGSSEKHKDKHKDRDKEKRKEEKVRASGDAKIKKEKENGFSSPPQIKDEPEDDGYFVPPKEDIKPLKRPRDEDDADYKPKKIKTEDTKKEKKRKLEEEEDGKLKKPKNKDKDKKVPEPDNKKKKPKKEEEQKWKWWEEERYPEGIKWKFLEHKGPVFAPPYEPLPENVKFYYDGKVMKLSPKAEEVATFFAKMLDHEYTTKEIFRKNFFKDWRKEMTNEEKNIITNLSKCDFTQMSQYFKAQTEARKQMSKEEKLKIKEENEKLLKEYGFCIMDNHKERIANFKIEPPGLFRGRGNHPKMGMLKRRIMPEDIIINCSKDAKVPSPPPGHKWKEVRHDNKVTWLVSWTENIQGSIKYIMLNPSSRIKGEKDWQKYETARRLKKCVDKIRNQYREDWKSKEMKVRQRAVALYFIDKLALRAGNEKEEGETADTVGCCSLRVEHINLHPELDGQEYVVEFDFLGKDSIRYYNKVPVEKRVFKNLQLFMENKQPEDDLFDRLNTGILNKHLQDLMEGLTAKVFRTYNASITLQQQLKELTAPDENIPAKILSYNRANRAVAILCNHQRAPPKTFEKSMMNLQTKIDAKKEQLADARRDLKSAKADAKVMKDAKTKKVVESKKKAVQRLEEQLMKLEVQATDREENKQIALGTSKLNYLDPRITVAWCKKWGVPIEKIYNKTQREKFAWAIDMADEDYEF
In words: Topo I inhibition assay (DNA relaxation assay). It counts as biochemical. To be noted: for IC50: DNA relaxation assay, pBR322, mean ± SD; for inhibition at 400 µM: read-out: percentage inhibition on Topo I activity. How it is done:
The DNA relaxation assay was adopted to investigate the compounds’ inhibitory activities on Topo I. Different concentrations of the compounds, dissolved and diluted in DMSO, were added into the relaxation buffer (50 mM Tris, pH 7.5, 50 mM KCl, 10 mM MgCl2, 0.1 mM EDTA, 0.5 Mm dithiothreitol, and 0.05 mg/mL bovine serum albumin) containing 0.2 U Topo I (ThermoFisher, Waltham, MA, USA) and incubated at room temperature for 10 min. After that, 500 ng supercoiled pBR322 plasmid DNA (ThermoFisher, Waltham, MA, USA) was added and then incubated at 37 °C for another 30 min. Finally, the reactions were stopped with a stopping solution (5% sodium dodecyl sulfate, 0.0025% bromophenol blue, and 25% glycerol), and the mixtures were applied onto 0.8% agarose gel and subjected to electrophoresis for 1.5 h in Tris-Acetate-EDTA buffer. After being stained with GelRed (Biotium, Fremont, CA, USA), the gel was imagined with the imaging system (Biotop, Shanghai, China). […] The band density of the supercoiled DNA was quantified by the ImageJ software (version 1.53a, National Institutes of Health, Bethesda, MD, USA), and the inhibition activity is expressed as the percentage inhibition and calculated by formula: Inhibition % = [(A − B)/(C − B)] × 100%, where A is the band density of the tested samples, B is the band density of the negative control, and C is the band density of the blank control.

The test system of the next data set is HepG2. In words: SRB cytotoxicity assay, HepG2. It counts as cell-based. To be noted: Homo sapiens, read-out: IC50 Cytotoxicity HepG2.
Text: as §3, §4

Data set [2] in a line: SRB cytotoxicity assay, hepatocyte HL-7702. The class given is cell-based, human. The note with it: SRB assay, 48 h, human hepatocyte, mean ± SD, read-out: IC50 Cytotoxicity HL-7702.
Text: as §3, §4

A further data set relates to MDA-MB-231. The data set can be described thus: SRB cytotoxicity assay, MDA-MB-231. To be noted: Homo sapiens, read-out: IC50 Cytotoxicity MDA-MB-231. It counts as cell-based.
Text: as §3, §4

Another data set concerns DLD-1. The data set can be described thus: SRB cytotoxicity assay, DLD-1. It counts as cell-based. To be noted: Homo sapiens, read-out: IC50 Cytotoxicity DLD-1.
Text: as §3, §4

The subject of data set [3] is A549, HCT116, MDA-MB-231, HepG2, DLD-1, HL-7702. The data set can be described thus: SRB cytotoxicity assay, panel of five human cancer cell lines and one human hepatocyte cell line. The note with it: tested concentration of 200 μM. How it is done: as §1, §2
Where [4] appears, read: A549, SRB assay, 48 h, mean ± SD.
Where [5] appears, read: HCT-116, SRB assay, 48 h, mean ± SD.
[6] abbreviates: HepG2, SRB assay, 48 h, mean ± SD.
Where [7] appears, read: MDA-MB-231, SRB assay, 48 h, mean ± SD.
[8] abbreviates: DLD-1, SRB assay, 48 h, mean ± SD.

As to `COc1ccc(/C=C/C(=O)c2ccc(OC)cc2O)cc1` [Compound 3], the IC50 at 48 h is at least 50.5 µM in [1] and over 200 µM in data set [2] (HL-7702 hepatocyte cell line). Besides, the IC50 in the data set with A549 (setting [4]) is 136 ± 25 µM; in the data set on HCT116 (setting [5]) it was 178 ± 6.11 µM; on DNA Topo I it was over 400 µM; in the data set on HepG2 (setting [6]), over 200 µM; with MDA-MB-231 (setting [7]), 167 ± 5.63 µM; in the data set on DLD-1 (setting [8]), 117 ± 11.6 µM. At DNA Topo I, the inhibition at 400 µM turned out to be 24.6%.

In the case of `COc1ccc(-c2oc3cc(O[C@@H]4O[C@H](CO)[C@@H](O)[C@H](O)[C@H]4O)cc(O)c3c(=O)c2OC)cc1O` [Compound 13], the IC50 at 48 h is at least 50.5 µM in data set [1] and over 200 µM in data set [2] (HL-7702 hepatocyte cell line). The 50% inhibitory concentration (IC50) with A549 (setting [4]) was over 200 µM; with HCT116 (setting [5]), 139 ± 11.3 µM; at DNA Topo I, over 400 µM; in the data set with HepG2 (setting [6]), over 200 µM; in the data set on MDA-MB-231 (setting [7]) it was over 200 µM; in the data set on DLD-1 (setting [8]) it was 179 ± 5.94 µM. In addition, at DNA Topo I, the inhibition at 400 µM is 38.6%.

Turning to `C=CCCCCC[C@H](O)[C@@H](O)[C@H](C#CC#CCCC)OC` [Compound 29], the “cytotoxicity in all cell lines” value in data set [3] is “no cytotoxicity”. In addition, the IC50 is over 200 µM with A549 (A549, 48 h); over 200 µM in the data set with HCT116 (HCT-116, 48 h); over 400 µM against DNA Topo I; over 200 µM with HepG2 (HepG2, 48 h); over 200 µM in the data set with MDA-MB-231 (MDA-MB-231, 48 h); over 200 µM with DLD-1 (DLD-1, 48 h). The IC50 at 48 h in data set [2] was over 200 µM.
